# Results taken from patent US20260137814A1, “FLUORESCENT COMPOUNDS FOR ACCELERATED CANCER THERANOSTIC” (The Hong Kong University of Science and Technology, priority 2022, published 2026).
# Key:
# [1] = Absorption and emission spectra in solution; type: physicochemical
# Source text: Expectedly, the emission spectrum of TBT-2(1P-DPA), and TBT-2(2P-DPA) both ends below 1000 nm, while the emission maximum of TBT-2(TP-DPA) was 1046 nm when upon 808 nm excitation (FIG. 3d). […] The experimental characterization is in consistency with our theoretical hypothesis, which made TBT-2(TP-DPA) ideal candidates as the template of NIR-II theranostic agents.
# [2] = Absolute fluorescence quantum yield in the NIR region; type: physicochemical; conditions: in toluene, under 808 nm excitation
# Experimental: Under 808 nm excitation, the absolute quantum yield of TBT-2(TP-DPA) in the NIR region was determined to be 10.4% in toluene.
absorption ended up to ([1]; in THE solution),absorption peak ([1]; in THE solution),absolute quantum yield in the NIR region [2],emission wavelength extended to [1],emission maximum ([1]; upon 808 nm excitation),Compound
800 nm,580 nm,,,,CCCCC(CC)Cn1nc2c(-c3ccc(N(c4ccc(OC)cc4)c4ccc(OC)cc4)cc3)c3c(c(-c4ccc(N(c5ccc(OC)cc5)c5ccc(OC)cc5)cc4)c2n1)N=S=N3 (stereo not drawn) [TBT-2(1P-DPA)]
,around 800 nm,10.4%,~1500 nm,1046 nm,CCCCC(CC)Cn1nc2c(-c3ccc(-c4ccc(N(c5ccc(OC)cc5)c5ccc(OC)cc5)cc4)s3)c3c(c(-c4ccc(-c5ccc(N(c6ccc(OC)cc6)c6ccc(OC)cc6)cc5)s4)c2n1)N=S=N3 (stereo not drawn) [TBT-2(TP-DPA)]
